For 13 molecules, Ki, Ratio Ki and Kd results are on record in ChEMBL document CHEMBL4619813, “Virtual Screening for Ligand Discovery at the σ1 Receptor” (ACS Med Chem Lett, 2020).

The target of test [1] is Sigma non-opioid intracellular receptor 1 (Homo sapiens, UniProt Q99720). Put plainly: Displacement of [3H](+)-pentazocine from recombinant sigma 1 receptor (unknown origin) expressed in baculovirus infected Sf9 cell membranes after 1.5 hrs by scintillation counting analysis.
Test [2] can be described thus: Selectivity ratio of Ki for displacement of [3H](+)-DTG from recombinant sigma 2 receptor (unknown origin) expressed in baculovirus infected Sf9 cell membranes to Ki for displacement of [3H](+)-pentazocine from recombinant sigma 1 receptor (unknown origin) expressed in baculovirus infected Sf9 cell membranes. The conditions noted are these: Homo sapiens.
The target of test [3] is Sigma intracellular receptor 2 (Homo sapiens, UniProt Q5BJF2). Put plainly: Displacement of [3H](+)-DTG from recombinant sigma 2 receptor (unknown origin) expressed in baculovirus infected Sf9 cell membranes after 1.5 hrs by scintillation counting analysis.

Structures are written as SMILES. Some results are limits rather than exact numbers.

Sigma non-opioid intracellular receptor 1, sequence (Q99720 whole entry): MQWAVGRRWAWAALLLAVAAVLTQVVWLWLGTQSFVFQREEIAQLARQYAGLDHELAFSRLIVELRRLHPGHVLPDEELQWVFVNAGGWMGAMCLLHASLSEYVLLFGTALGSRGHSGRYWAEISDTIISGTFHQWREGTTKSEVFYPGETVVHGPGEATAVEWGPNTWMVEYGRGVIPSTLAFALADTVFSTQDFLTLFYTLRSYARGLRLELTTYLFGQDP
Sigma intracellular receptor 2, sequence (Q5BJF2 whole entry): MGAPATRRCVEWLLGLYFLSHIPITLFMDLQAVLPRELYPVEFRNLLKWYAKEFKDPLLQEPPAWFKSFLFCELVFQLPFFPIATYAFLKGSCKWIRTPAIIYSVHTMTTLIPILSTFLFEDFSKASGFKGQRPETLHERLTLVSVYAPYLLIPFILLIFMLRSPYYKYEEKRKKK

For the molecule `FC(F)(F)c1cccc(-c2ccc(CNCc3cccnc3)o2)c1`, the inhibition constant Ki in test [1] stood at 191 nM.

In the case of `OC1COCCC1NC1CCN(c2ccc(C(F)(F)F)cn2)CC1` (stereo not given), the Ki in test [1] amounted to 18 nM; in test [3] it was 15 nM. For the same molecule, in test [2], the Ratio Ki is 0.8.

For the molecule `Fc1ccc(CN2CCCN(C(=S)Nc3cc(F)cc(F)c3)C2)cc1`, the inhibitory constant (Ki) in test [1] was found to be 23 nM; in test [3], 949 nM. Moreover, the Ratio Ki in test [2] was 41.3.

Take `O=C(c1c[nH]c2ccccc12)N1CCC(N2CCc3ccccc3C2)C1` (stereo not given): the Kd in test [1] and in test [3] was above 1000 nM each time.

Consider `O=C(c1ccc(C(F)(F)F)cc1)N1CCN(Cc2ccccc2)CC1`, for which the inhibition constant Ki in test [1] turned out to be 915 nM.

Consider `Cc1nn(-c2ccccc2Cl)c(Cl)c1CNCc1cc(F)cc(F)c1`, for which the values for the Ki in test [1] and in test [3] were 164 nM and 985 nM, respectively. Moreover, in test [2], the Ratio Ki came to 6.

`NC(Cc1ccccc1)C(=O)N1CCN(c2ccc3nccn3n2)CC1` (stereo not given): the Kd in test [1] and in test [3] was above 1000 nM throughout.

For the molecule `FC(F)(F)c1cccc(N2CCC(/N=C/c3ccc(Br)cc3)N2)c1` (stereo not given), the Kd in test [1] and in test [3] was above 1000 nM throughout.

In the case of `Cc1c(C(=O)NC(CN(C)C)c2ccccc2)cnn1-c1ccc(F)cc1` (stereo not given), the Kd in test [1] and in test [3] was above 1000 nM throughout.

`Cc1[nH]c2cc(C(F)(F)F)ccc2c(=O)c1CN(C)Cc1ccccc1`: the values for the inhibition constant Ki in test [1] and in test [3] were 89 nM and 2950 nM, respectively. The Ratio Ki in test [2] stood at 33.2.

Turning to `CC(CCc1c[nH]c2ccccc12)NC1CCN(C(=O)C(C)C)CC1` (stereo not given), the Kd in test [1] and in test [3] was above 1000 nM throughout.

For the molecule `NC(=O)c1cccc(CNC2CCN(c3ccc(F)c(Cl)c3)C2)c1` (stereo not given), the Ki was determined as 220 nM in test [1] and 250 nM in test [3]. Besides, the Ratio Ki in test [2] is 1.1.

As to `Cc1nn(CCO)cc1CN(C)Cc1csc(-c2ccccc2)n1`, the Ki in test [1] stood at 127 nM; in test [3], 2370 nM. Besides, the Ratio Ki in test [2] was 18.7.
